Data taken from patent US20110212960A1, “NEW COMPOUNDS FOR THE TREATMENT OF CNS DISORDER” (BOEHRINGER INGELHEIM INTERNATIONAL GMBH, priority 2009, published 2011).

Target: T1, human PDE9A2 (Homo sapiens, UniProt O76083)
T1 construct: made in house; host or cells: Sf9 insect cells (infected; crude lysate used as enzyme source)
Experiment: PDE9A2 enzymatic activity assay (scintillation proximity assay)
Type: biochemical
Settings: at 10 micromolar concentration; read-out: % inhibition of PDE9A2
Experimental: The PDE9A2 enzymatic activity assay was run as scintillation proximity assay (SPA), in general according to the protocol of the manufacturer (Amersham Biosciences, product number: TRKQ 7100).
As enzyme source, lysate (PBS with 1% Triton X-100 supplemented with protease inhibitors, cell debris removed by centrifugation at 13.000 rpm for 30 min) of SF 9 cell expressing the human PDE9A2 was used. The total protein amount included in the assay varied upon infection and production efficacy of the SF9 cells and lay in the range of 0.1-100 ng.
In general, the assay conditions were as follows: • total assay volume: 40 microliter • protein amount: 0.1-50 ng • substrate concentration (cGMP): 20 nanomolar; ˜1 mCi/l • incubation time: 60 min at room temperature • final DMSO concentration: 0.2-1%
The assays were run in 384-well format. The test reagents as well as the enzyme and the substrate were diluted in assay buffer. The assay buffer contained 50 mM Tris, 8.3 mM MgCl2, 1.7 mM EGTA, 0.1% BSA, 0.05% Tween 20; the pH of assay buffer was adjusted to 7.5. The reaction was stopped by applying a PDE9 specific inhibitor (e.g. compounds according to WO04099210 or WO04099211) in excess.
The activity of the positive control (minus the negative control=background) is set to 100% and activity in the presence of test compound is expressed relative to these 100%.

T1 sequence (O76083 1-533 isoform O76083-2): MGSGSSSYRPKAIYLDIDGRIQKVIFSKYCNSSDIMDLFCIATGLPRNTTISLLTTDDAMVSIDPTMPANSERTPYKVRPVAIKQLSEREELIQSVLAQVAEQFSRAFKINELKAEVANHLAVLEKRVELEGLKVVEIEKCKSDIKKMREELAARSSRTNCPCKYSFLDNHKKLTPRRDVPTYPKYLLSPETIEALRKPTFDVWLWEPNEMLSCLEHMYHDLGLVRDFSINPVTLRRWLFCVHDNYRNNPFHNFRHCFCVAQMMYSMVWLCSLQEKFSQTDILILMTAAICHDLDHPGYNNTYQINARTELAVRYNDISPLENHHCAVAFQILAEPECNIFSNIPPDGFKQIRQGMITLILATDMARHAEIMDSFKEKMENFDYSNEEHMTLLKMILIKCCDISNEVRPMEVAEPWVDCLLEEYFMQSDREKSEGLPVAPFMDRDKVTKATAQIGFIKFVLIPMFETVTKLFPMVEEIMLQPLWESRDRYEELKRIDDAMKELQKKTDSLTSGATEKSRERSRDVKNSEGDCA

Row | inhibition at 10 µM | SMILES
1 | 66% | O=C([C@H]1CCCC[C@@H]1c1nc2c(cnn2C2CCC(F)(F)CC2)c(=O)[nH]1)N1CCCC1 (racemic) [Example 21]
2 | 92% | O=C([C@H]1C[C@@H]1c1nc2c(cnn2C2CCC(F)(F)CC2)c(=O)[nH]1)N1CCCCC1 (racemic) [Example 23]
3 | 96% | O=c1[nH]c(C2CCC2)nc2c1cnn2C1CCC(F)(F)CC1 [Example 30]
4 | 96% | O=C([C@H]1CC[C@@H]1c1nc2c(cnn2C2CCC(F)(F)CC2)c(=O)[nH]1)N1CCCCC1 (racemic) [Example 18]
5 | 101% | CC1CCN(C(=O)[C@H]2CC[C@@H]2c2nc3c(cnn3C3CCC(F)(F)CC3)c(=O)[nH]2)CC1 (racemic) [Example 15]
6 | 71% | O=C([C@H]1CCCC[C@@H]1c1nc2c(cnn2C2CCC(F)(F)CC2)c(=O)[nH]1)N1CCOCC1 (racemic) [Example 20]
7 | 100% | O=C([C@H]1CC[C@@H]1c1nc2c(cnn2C2CCC(F)(F)CC2)c(=O)[nH]1)N1CCC2(CC2)C1 (racemic) [Example 5]
8 | 80% | Cc1ccncc1-n1ncc2c(=O)[nH]c(C3CCC3)nc21 [Example 31]
9 | 98% | CC1(C)CN(C(=O)[C@H]2CC[C@@H]2c2nc3c(cnn3C3CCC(F)(F)CC3)c(=O)[nH]2)CCO1 (racemic) [Example 16]
10 | 94% | O=c1[nH]c([C@@H]2CC[C@H]2CN2CC(F)(F)C(F)(F)C2)nc2c1cnn2C1CCC(F)(F)CC1 (racemic) [Example 28]
11 | 97% | CC1(C)CCN(C(=O)[C@H]2CC[C@@H]2c2nc3c(cnn3C3CCC(F)(F)CC3)c(=O)[nH]2)CC1 (racemic) [Example 10]
12 | 100% | O=C([C@H]1CC[C@@H]1c1nc2c(cnn2C2CCC(F)(F)CC2)c(=O)[nH]1)N1CCC(F)(F)CC1 (racemic) [Example 9]
13 | 90% | C#CCNC(=O)C1CCC1c1nc2c(cnn2C2CCC(F)(F)CC2)c(=O)[nH]1 (racemic) [Example 22]
14 | 90% | Cc1ccncc1-n1ncc2c(=O)[nH]c([C@H]3C[C@@H]3C)nc21 (racemic) [Example 36]
15 | 101% | O=C([C@H]1CC[C@@H]1c1nc2c(cnn2C2CCCC2)c(=O)[nH]1)N1CCCCC1 (racemic) [Example 24]
16 | 89% | O=c1[nH]c([C@@H]2CC[C@H]2Cn2cccn2)nc2c1cnn2C1CCC(F)(F)CC1 (racemic) [Example 47]
17 | 101% | O=C([C@H]1CC[C@@H]1c1nc2c(cnn2C2CCC(F)(F)CC2)c(=O)[nH]1)N1CCC(C(F)(F)F)CC1 (racemic) [Example 6]

Same assay, conditions: specific IC50 value lies within the given range; read-out: IC50 within range [nanomolar (nM)]

Row | IC50 | SMILES
18 | 201 to 5000 nM | Cc1ccccc1-n1ncc2c(=O)[nH]c(C3CCCC(O)C3)nc21 (mixture of isomers) [Example 40]
19 | 201 to 5000 nM | Cc1ccccc1-n1ncc2c(=O)[nH]c(C3CC3)nc21 [Example 39]
20 | 201 to 5000 nM | CCOC(=O)[C@H]1C[C@H]1c1nc2c(cnn2C(CC)CC)c(=O)[nH]1 (stereo in doubt) [Example 43]
21 | 201 to 5000 nM | Cc1ccccc1-n1ncc2c(=O)[nH]c(C3CCC(O)C(O)C3)nc21 (mixture of isomers) [Example 41]
22 | 1 to 200 nM | O=C([C@H]1CCCC[C@@H]1c1nc2c(cnn2C2CCC(F)(F)CC2)c(=O)[nH]1)N1CCCC1 (racemic) [Example 21]
23 | 201 to 5000 nM | CCC(CC)n1ncc2c(=O)[nH]c(C3CCCC(C(=O)O)C3)nc21 (single isomer, unassigned) [Example 45]
24 | 201 to 5000 nM | O=C([C@H]1C[C@@H]1c1nc2c(cnn2C2CCC(F)(F)CC2)c(=O)[nH]1)N1CCCCC1 (racemic) [Example 23]
25 | 1 to 200 nM | O=c1[nH]c(C2CCC2)nc2c1cnn2C1CCC(F)(F)CC1 [Example 30]
26 | 1 to 200 nM | O=C([C@H]1CC[C@@H]1c1nc2c(cnn2C2CCC(F)(F)CC2)c(=O)[nH]1)N1CCCCC1 (racemic) [Example 18]
27 | 1 to 200 nM | CC1CCN(C(=O)[C@H]2CC[C@@H]2c2nc3c(cnn3C3CCC(F)(F)CC3)c(=O)[nH]2)CC1 (racemic) [Example 15]
28 | 201 to 5000 nM | CCOC(=O)C1CCCC(c2nc3c(cnn3C(CC)CC)c(=O)[nH]2)C1 (mixture of isomers) [Example 42]
29 | 201 to 5000 nM | O=C([C@H]1CCCC[C@@H]1c1nc2c(cnn2C2CCC(F)(F)CC2)c(=O)[nH]1)N1CCOCC1 (racemic) [Example 20]
30 | 1 to 200 nM | O=C([C@H]1CC[C@@H]1c1nc2c(cnn2C2CCC(F)(F)CC2)c(=O)[nH]1)N1CCC2(CC2)C1 (racemic) [Example 5]
31 | 201 to 5000 nM | Cc1ccncc1-n1ncc2c(=O)[nH]c(C3CCC3)nc21 [Example 31]
32 | 1 to 200 nM | CC1(C)CN(C(=O)[C@H]2CC[C@@H]2c2nc3c(cnn3C3CCC(F)(F)CC3)c(=O)[nH]2)CCO1 (racemic) [Example 16]
33 | 1 to 200 nM | O=c1[nH]c([C@@H]2CC[C@H]2CN2CC(F)(F)C(F)(F)C2)nc2c1cnn2C1CCC(F)(F)CC1 (racemic) [Example 28]
34 | 1 to 200 nM | COC(=O)C1CCCC(c2nc3c(cnn3-c3ccccc3C)c(=O)[nH]2)C1 (mixture of isomers) [Example 38]
35 | 1 to 200 nM | CC1(C)CCN(C(=O)[C@H]2CC[C@@H]2c2nc3c(cnn3C3CCC(F)(F)CC3)c(=O)[nH]2)CC1 (racemic) [Example 10]
36 | 1 to 200 nM | O=C([C@H]1CC[C@@H]1c1nc2c(cnn2C2CCC(F)(F)CC2)c(=O)[nH]1)N1CCC(F)(F)CC1 (racemic) [Example 9]
37 | 1 to 200 nM | Cc1ccccc1-n1ncc2c(=O)[nH]c(C3CC3C)nc21 (mixture of isomers) [Example 37]
38 | 1 to 200 nM | C#CCNC(=O)C1CCC1c1nc2c(cnn2C2CCC(F)(F)CC2)c(=O)[nH]1 (racemic) [Example 22]
39 | 201 to 5000 nM | CCC(CC)n1ncc2c(=O)[nH]c(C3CCC(C(=O)Nc4cc(OC)cc(OC)c4)CC3)nc21 (mixture of isomers) [Example 44]
40 | 1 to 200 nM | Cc1ccncc1-n1ncc2c(=O)[nH]c([C@H]3C[C@@H]3C)nc21 (racemic) [Example 36]
41 | 1 to 200 nM | O=C([C@H]1CC[C@@H]1c1nc2c(cnn2C2CCCC2)c(=O)[nH]1)N1CCCCC1 (racemic) [Example 24]
42 | 201 to 5000 nM | O=c1[nH]c([C@@H]2CC[C@H]2Cn2cccn2)nc2c1cnn2C1CCC(F)(F)CC1 (racemic) [Example 47]
43 | 1 to 200 nM | O=C([C@H]1CC[C@@H]1c1nc2c(cnn2C2CCC(F)(F)CC2)c(=O)[nH]1)N1CCC(C(F)(F)F)CC1 (racemic) [Example 6]
